Laboratory results from BindingDB's records for PubMed 39481228 (Anhui Medical University).
pKi: −log10 of the molar value.

Legend:
[1] = biological target: T1, Cholinesterase (Homo sapiens, UniProt P06276); assay: Binding affinity to human BuChE (unknown origin) assessed as overall carbamolyation rate at 0.025 to 100 uM incubated for 60 mins
[2] = biological target: T1, Cholinesterase; assay: Binding affinity to human BuChE (unknown origin) assessed as overall carbamolyation rate at 100 to 1000 nM incubated for 60 mins

T1 sequence (P06276 whole entry): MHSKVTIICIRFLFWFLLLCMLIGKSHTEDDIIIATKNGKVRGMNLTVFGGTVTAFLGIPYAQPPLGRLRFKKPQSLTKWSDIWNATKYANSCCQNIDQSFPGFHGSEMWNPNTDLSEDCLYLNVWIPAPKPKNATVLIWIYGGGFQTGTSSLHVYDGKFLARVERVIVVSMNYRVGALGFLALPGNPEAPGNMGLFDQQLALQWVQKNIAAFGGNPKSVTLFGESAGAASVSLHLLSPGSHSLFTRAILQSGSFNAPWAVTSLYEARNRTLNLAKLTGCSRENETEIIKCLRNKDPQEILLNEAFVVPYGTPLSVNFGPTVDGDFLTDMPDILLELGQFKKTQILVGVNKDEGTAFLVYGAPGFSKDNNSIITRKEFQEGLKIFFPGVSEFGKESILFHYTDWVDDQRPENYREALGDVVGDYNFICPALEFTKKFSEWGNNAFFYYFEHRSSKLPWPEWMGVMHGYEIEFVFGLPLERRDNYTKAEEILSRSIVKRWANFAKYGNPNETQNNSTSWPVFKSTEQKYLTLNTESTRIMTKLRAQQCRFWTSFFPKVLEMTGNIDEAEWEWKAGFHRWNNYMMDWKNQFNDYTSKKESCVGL

| Compound | pKi [1] | pKi [2] |
| --- | --- | --- |
| COc1ccc(C(C)=O)c(OC(=O)N2CCCCC2)c1 | 9.51 | – |
| COc1ccc(C(C)=O)c(OC(=O)N(C)Cc2ccc(F)cc2)c1 | – | 8.55 |
